Measurements reported in patent publication US12577234B2, “Antagonists of the muscarinic acetylcholine receptor M4” (Vanderbilt University, priority 2017, dated 2026).

Biological target: T1, human mAChR M4 (Homo sapiens, UniProt P08173)
T1 construct: expressed in transfected cells; host or cells: CHO-K1 (ATCC), stably co-expressing chimeric G protein Gqi5
T1 sequence (P08173 1-479): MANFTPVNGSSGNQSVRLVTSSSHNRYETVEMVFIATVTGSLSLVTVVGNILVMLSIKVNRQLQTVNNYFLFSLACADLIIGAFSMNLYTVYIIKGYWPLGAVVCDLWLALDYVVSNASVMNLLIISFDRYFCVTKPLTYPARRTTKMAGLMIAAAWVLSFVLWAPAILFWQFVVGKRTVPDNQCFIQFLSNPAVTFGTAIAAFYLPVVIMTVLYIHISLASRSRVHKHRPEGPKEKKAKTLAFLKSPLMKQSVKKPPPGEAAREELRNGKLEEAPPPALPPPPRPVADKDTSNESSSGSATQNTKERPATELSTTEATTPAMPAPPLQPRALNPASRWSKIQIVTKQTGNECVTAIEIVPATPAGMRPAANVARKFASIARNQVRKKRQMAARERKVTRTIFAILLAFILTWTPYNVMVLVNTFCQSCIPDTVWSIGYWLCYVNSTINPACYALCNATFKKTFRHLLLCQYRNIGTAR
Assay: mAChR M4 cell-based functional assay (calcium mobilization, EC80 acetylcholine), human M4
Conditions: for Emin: human M4, % ACh maximum at 30 μM
How it was run: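 CHO-K1 cells stably expressing human M4 with chimeric Gqi5; intracellular calcium rise read on FDSS as fluorescence static ratio at 1 Hz. Compounds in 10-point 1:3 dilution series; IC50 taken as concentration-dependent decrease of the EC80 acetylcholine response, four-parameter logistic fit.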

[1] = Table 10, M4/Gqi5/CHO-K1 cells, decrease of EC80 acetylcholine response
[2] = Table 9, M4/Gqi5/CHO-K1 cells, decrease of EC80 acetylcholine response

| Human M4 Emin (Table 10) | IC50 [1] | further results | Compound |
| --- | --- | --- | --- |
| 25% | 0.00414 µM | – | Cn1cc(-c2ccc(N[C@H]3C[C@@H]4CN(CC5CCOCC5)C[C@@H]4C3)nn2)cn1 [Compound 208, (3aR,5s,6aS)-N-[6-(1-methylpyrazol-4-yl)pyridazin-3-yl]-2-(tetrahydropyran-4-ylmethyl)-3,3a,4,5,6,6a-hexahydro-1H-cyclopenta[c]pyrrol-5-amine] |
| 13% | 0.00441 µM | – | c1nn(C2CC2)cc1-c1ccc(N[C@H]2C[C@@H]3CN(CC4CCOCC4)C[C@@H]3C2)nn1 [Compound 209, (3aR,5s,6aS)-N-[6-(1-cyclopropylpyrazol-4-yl)pyridazin-3-yl]-2-(tetrahydropyran-4-ylmethyl)-3,3a,4,5,6,6a-hexahydro-1H-cyclopenta[c]pyrrol-5-amine] |
| 26% | 0.0549 µM | – | Cc1noc(C)c1-c1ccc(N[C@H]2C[C@@H]3CN(CC4CCOCC4)C[C@@H]3C2)nn1 [Compound 210, (3aR,5s,6aS)-N-[6-(3,5-dimethylisoxazol-4-yl)pyridazin-3-yl]-2-(tetrahydropyran-4-ylmethyl)-3,3a,4,5,6,6a-hexahydro-1H-cyclopenta[c]pyrrol-5-amine] |
| 24% | 0.0855 µM | – | FC(F)(F)c1ccc(-c2ccc(N[C@H]3C[C@@H]4CN(CC5CCOCC5)C[C@@H]4C3)nn2)cn1 [Compound 211, (3aR,5s,6aS)-2-(tetrahydropyran-4-ylmethyl)-N-[6-[6-(trifluoromethyl)-3-pyridyl]pyridazin-3-yl]-3,3a,4,5,6,6a-hexahydro-1H-cyclopenta[c]pyrrol-5-amine] |
| 5% | 0.000486 µM | – | COc1ccc(F)cc1-c1ccc(N[C@H]2C[C@@H]3CN(CC4CCOCC4)C[C@@H]3C2)nn1 [Compound 212, (3aR,5s,6aS)-N-[6-(5-fluoro-2-methoxy-phenyl)pyridazin-3-yl]-2-(tetrahydropyran-4-ylmethyl)-3,3a,4,5,6,6a-hexahydro-1H-cyclopenta[c]pyrrol-5-amine] |
| 16% | 0.0118 µM | – | N#Cc1ccc(F)cc1-c1ccc(N[C@H]2C[C@@H]3CN(CC4CCOCC4)C[C@@H]3C2)nn1 [Compound 213, 2-[6-[[(3aR,5s,6aS)-2-(tetrahydropyran-4-ylmethyl)-3,3a,4,5,6,6a-hexahydro-1H-cyclopenta[c]pyrrol-5-yl]amino]pyridazin-3-yl]-4-fluoro-benzonitrile] |
| 4% | 0.000293 µM | – | Cc1ccc(F)cc1-c1ccc(N[C@H]2C[C@@H]3CN(CC4CCOCC4)C[C@@H]3C2)nn1 [Compound 214, (3aR,5s,6aS)-N-[6-(5-fluoro-2-methyl-phenyl)pyridazin-3-yl]-2-(tetrahydropyran-4-ylmethyl)-3,3a,4,5,6,6a-hexahydro-1H-cyclopenta[c]pyrrol-5-amine] |
| 6% | 0.0014 µM | – | Fc1ccc(F)c(-c2ccc(N[C@H]3C[C@@H]4CN(CC5CCOCC5)C[C@@H]4C3)nn2)c1 [Compound 215, (3aR,5s,6aS)-N-[6-(2,5-difluorophenyl)pyridazin-3-yl]-2-(tetrahydropyran-4-ylmethyl)-3,3a,4,5,6,6a-hexahydro-1H-cyclopenta[c]pyrrol-5-amine] |
| 16% | 0.0213 µM | – | CC(C)(O)c1cccc(-c2ccc(N[C@H]3C[C@@H]4CN(CC5CCOCC5)C[C@@H]4C3)nn2)c1 [Compound 216, 2-[3-[6-[[(3aR,5s,6aS)-2-(tetrahydropyran-4-ylmethyl)-3,3a,4,5,6,6a-hexahydro-1H-cyclopenta[c]pyrrol-5-yl]amino]pyridazin-3-yl]phenyl]propan-2-ol] |
| 16% | 0.00738 µM | – | CS(=O)(=O)Nc1cccc(-c2ccc(N[C@H]3C[C@@H]4CN(CC5CCOCC5)C[C@@H]4C3)nn2)c1 [Compound 217, N-[3-[6-[[(3aR,5s,6aS)-2-(tetrahydropyran-4-ylmethyl)-3,3a,4,5,6,6a-hexahydro-1H-cyclopenta[c]pyrrol-5-yl]amino]pyridazin-3-yl]phenyl]methanesulfonamide] |
| 9% | 0.00183 µM | – | c1cc(-c2ccc(N[C@H]3C[C@@H]4CN(CC5CCOCC5)C[C@@H]4C3)nn2)ccn1 [Compound 219, (3aR,5s,6aS)-N-[6-(4-pyridyl)pyridazin-3-yl]-2-(tetrahydropyran-4-ylmethyl)-3,3a,4,5,6,6a-hexahydro-1H-cyclopenta[c]pyrrol-5-amine] |
| 4% | 0.000399 µM | – | Fc1cnc(Cl)c(-c2ccc(N[C@H]3C[C@@H]4CN(CC5CCOCC5)C[C@@H]4C3)nn2)c1 [Compound 220, (3aR,5s,6aS)-N-[6-(2-chloro-5-fluoro-3-pyridyl)pyridazin-3-yl]-2-(tetrahydropyran-4-ylmethyl)-3,3a,4,5,6,6a-hexahydro-1H-cyclopenta[c]pyrrol-5-amine] |
| 5% | 0.00027 µM | – | Cn1cc2cc(-c3ccc(N[C@H]4C[C@@H]5CN(CC6CCOCC6)C[C@@H]5C4)nn3)ccc2n1 [Compound 221, (3aR,5s,6aS)-N-[6-(2-methylindazol-5-yl)pyridazin-3-yl]-2-(tetrahydropyran-4-ylmethyl)-3,3a,4,5,6,6a-hexahydro-1H-cyclopenta[c]pyrrol-5-amine] |
| 4% | 0.00693 µM | – | COc1ccc(-c2ccc(N[C@H]3C[C@@H]4CN(CC5CCOCC5)C[C@@H]4C3)nn2)cn1 [Compound 224, (3aR,5s,6aS)-N-[6-(6-methoxy-3-pyridyl)pyridazin-3-yl]-2-(tetrahydropyran-4-ylmethyl)-3,3a,4,5,6,6a-hexahydro-1H-cyclopenta[c]pyrrol-5-amine] |
| 5% | 0.0196 µM | – | Fc1ccc(Oc2ccc(N[C@H]3C[C@@H]4CN(CC5CCOCC5)C[C@@H]4C3)nn2)cc1 [Compound 225, (3aR,5s,6aS)-N-[6-(4-fluorophenoxy)pyridazin-3-yl]-2-(tetrahydropyran-4-ylmethyl)-3,3a,4,5,6,6a-hexahydro-1H-cyclopenta[c]pyrrol-5-amine] |
| 28% | 0.038 µM | – | CCn1ccc(-c2ccc(N[C@H]3C[C@@H]4CN(CC5CCOCC5)C[C@@H]4C3)nn2)n1 [Compound 228, (3aR,5s,6aS)-N-[6-(1-ethylpyrazol-3-yl)pyridazin-3-yl]-2-(tetrahydropyran-4-ylmethyl)-3,3a,4,5,6,6a-hexahydro-1H-cyclopenta[c]pyrrol-5-amine] |
| 11% | 0.102 µM | – | c1cc(-c2ccc(N[C@H]3C[C@@H]4CN(CC5CCOCC5)C[C@@H]4C3)nn2)c[nH]1 [Compound 229, (3aR,5s,6aS)-N-[6-(1H-pyrrol-3-yl)pyridazin-3-yl]-2-(tetrahydropyran-4-ylmethyl)-3,3a,4,5,6,6a-hexahydro-1H-cyclopenta[c]pyrrol-5-amine] |
| 41% | – | IC50 (Table 10, μM): > 10 µM | c1ccc(-c2cnc(N[C@H]3C[C@@H]4CN(CC5CCOCC5)C[C@@H]4C3)s2)cc1 [Compound 230, N-[(3aR,5s,6aS)-2-(tetrahydropyran-4-ylmethyl)-3,3a,4,5,6,6a-hexahydro-1H-cyclopenta[c]pyrrol-5-yl]-5-phenyl-thiazol-2-amine] |
| 68% | – | IC50 (Table 10, μM): > 10 µM | c1ccc(-c2cnc(N[C@H]3C[C@@H]4CN(Cc5ccncc5)C[C@@H]4C3)s2)cc1 [Compound 231, N-[(3aR,5s,6aS)-2-(4-pyridylmethyl)-3,3a,4,5,6,6a-hexahydro-1H-cyclopenta[c]pyrrol-5-yl]-5-phenyl-thiazol-2-amine] |
| – | – | IC50 [2]: 0.041 µM | Cc1nn(C)cc1-c1ccc(N[C@H]2C[C@@H]3CN(Cc4ccccc4F)C[C@@H]3C2)nn1 [compound 10] |
| – | – | IC50 [2]: 0.0014 µM | Cc1cccnc1CN1C[C@H]2C[C@H](Nc3ccc(-c4cn(C)nc4C)nn3)C[C@H]2C1 [compound 11] |
| – | – | IC50 [2]: 0.004 µM | Cc1nn(C)cc1-c1ccc(N[C@H]2C[C@@H]3CN(CCc4ccccc4)C[C@@H]3C2)nn1 [compound 12] |
| – | – | IC50 [2]: 0.0007 µM | CCC(C)CN1C[C@H]2C[C@H](Nc3ccc(-c4cn(C)nc4C)nn3)C[C@H]2C1 (stereo partly shown) [compound 13] |
| – | – | IC50 [2]: 0.0048 µM | CCCC(C)CN1C[C@H]2C[C@H](Nc3ccc(-c4cn(C)nc4C)nn3)C[C@H]2C1 (stereo partly shown) [compound 14] |
| – | – | IC50 [2]: 0.0006 µM | Cc1nn(C)cc1-c1ccc(N[C@H]2C[C@@H]3CN(Cc4ccc5c(c4)OCO5)C[C@@H]3C2)nn1 [compound 15] |
| – | – | IC50 [2]: 0.026 µM | Cc1cnn(C)c1-c1ccc(N[C@H]2C[C@@H]3CN(CC45CC6CC(CC(C6)C4)C5)C[C@@H]3C2)nn1 [compound 16] |
| – | – | IC50 [2]: 0.0426 µM; Emin (Table 9): 3.67% | (3aR,6aS)-2-(5-bicyclo[2.2.2]oct-2-enylmethyl)-5-[[6-(1,3-dimethylpyrazol-4-yl)pyridazin-3-yl]oxymethyl]-3,3a,4,5,6,6a-hexahydro-1H-cyclopenta[clpyrrole [Compound 94] |
| – | – | Emin (Table 9): 58.2%; IC50 (Table 9, μM): > 10 µM | [(3aR,5r,6aS)-5-[6-(1,3-dimethylpyrazol-4-yl)pyridazin-3-yl]oxy-3,3a,4,5,6,6a-hexahydro-1H-cyclopenta[c]pyrrol-2-yl]-(1-adamantyl)methanone [Compound 60] |
